Results published in US6126795A, “Electroenzymatic reactor and method for enzymatic catalysis” (The United States of America as represented by the …, priority 1998, dated 2000).

Legend:
CYP101 = CYP101 (Pseudomonas putida, UniProt P00183); assay: Electrode-driven camphor hydroxylation by CYP101/Pdx in electroenzymatic reactor; type: biochemical
From the text: The proteins were then purified using ion-exchange chromatography and size exclusion chromatography. The final protein preparations were at least 95% pure. On the basis of absorbance ratios, the mole fraction purity ×100 of each subunit protein was greater than 90. In addition, several preparations of the proteins were examined by high-resolution two-dimensional gel electrophoresis and by imaging analysis, and the mole fraction purity ×100 was estimated to be greater than 97 for each protein.
The working electrodes used in the following examples were antimony-doped, tin-oxide coated (0.3 μm thickness) glass slides (4×2 cm, Delta Technologies, Stillwater, Min.), with donor concentration as determined from Mott-Schottky plots (Nd =5×10^20 cm^-3). Prior to the biocatalysis experiments, the electrodes were soaked and sonicated in 1 M NaOH for approximately two hours, then rinsed with distilled water. They were activated in 15% HCl solution using a potential sweep between -0.5 and 1.5 V at 10 mV/s, and stored in distilled water. Film electrode resistance, as measured by a four point probe (Cascade Mictrotech, Inc., Model C4A-44 Beaverton, Oreg.), was 40-50 .OMEGA./sq.
The reference electrode was a standard Ag/AgCl (3M KCl) reference micro-electrode (Abtech Inc. RE803). The counter electrode was made as a coil of 0.5 mm thick Pt wire.
The buffer media was prepared using 0.16 M aqueous KCl and 0.01 M aqueous MgCl2, adjusted to about pH 7.4 with Tris-HCl buffer.
The product, 5-exo-hydroxy-camphor, was identified by GC-MS (gas chromatography and mass spectrophotometry) and quantified by GC-FID (gas chromatography and flame ionization detection). GC injection samples of 1-2 μL were prepared from approximately equal volumes of reaction mixture and an extraction cocktail comprising 0.3 g methylene chloride and 0.02 g KCl with 300 μM n-decane as an internal standard. The GC was operated with a DB-5 column (J&W Scientific, Folsom, Calif.) (30 m) with temperature programing (2 minutes at 60° C., ramp at 10° C./min to 120° C., 2 min at 120° C., ramp up at 15° C./min 160° C.). Retention times (He carrier gas at 2.8 bar pressure) were: n-decane 4.7 minutes, camphor 7.0 minutes, 5-exo-hydroxy-camphor 10.9 minutes. […] Identification of 5-exo-hydroxy-camphor as the product was done by comparing the m/e (mass/charge ratio) pattern (VG analytical Mass Spectrometer, 70 eV electron impact energy) with published spectra; see White et al., Arch. Biochem. Biophys.228, 493-502, 1984, the disclosure of which is incorporated herein by reference.
The same cell as described in Example 1 was equipped with two antimony-doped, tin-oxide electrodes and one platinum wire counter electrode. […] Electrolysis was started by applying a potential equal to -0.7 V (vs Ag/AgCl) to the tin oxide electrodes. […] Therefore, the enzyme underwent about 20 turnovers during the four hour period.
The same cell as described in Example 1 was equipped with-one antimony-doped, tin-oxide electrode and a Pt wire counter electrode isolated by a glass frit. A Pt sheet (0.5×10×30 mm) was positioned close to the surface of the working electrode. […] Initial GC analysis indicated no trace of the product. A potential equal to -0.7 V (vs Ag/AgCl) was applied to the tin oxide electrode. The Pt sheet was left at open circuit potential. After 5 hours of electrolysis, during which the solution was stirred by a magnetic stirrer, 442 μM product (5-exo-hydroxy-camphor) was detected by GC analysis. This corresponds to 1922 turnovers of the enzyme at an average rate of 384 turnovers/hour.
An antimony-doped, tin-oxide working electrode was wrapped in a Pt grid, which was electrically isolated from the conductive side of the electrode. A Pt wire, isolated from the working electrode and Pt grid by a glass frit, was utilized as a counter electrode. […]

[1] = Pdx integrity/activity after electrolysis and redox behaviour on antimony-doped tin-oxide electrode; type: physicochemical
Description: In a 1 cm path-length spectrophotometer cell, with 30 μM Pdx in the above-specified buffer, a potential of -0.7 V (vs. Ag/AgCl) was applied using a potentiostat, and an absorption spectrum was recorded through the transparent SnO2 electrode and 1 cm of reactor solution. The electrode surface area to solution volume ratio was about 5/m. A characteristic absorption spectrum of the oxidized Pdx was recorded initially. After 30 minutes of electrolytic reduction at -0.7 V, a characteristic spectrum of reduced Pdx was recorded. After an additional 30 minutes of electrolysis, the potential was switched to 0 V and a characteristic spectrum of oxidized Pdx was obtained. After electrolysis was complete, 50% of the initial activity of Pdx was recovered, as determined by the method described in Phillips and Langdon, J. Biol. Chem., 237, 2652 (1962), the disclosure of which is incorporated herein by reference. […] The recorded current-potential dependencies were stable and reproducible throughout the 6 hour period. […] The method described in this Example can be used to determine whether the working electrode has redox activity toward the redox carrier.
An antimony-doped, tin-oxide working electrode was wrapped in a Pt grid, which was electrically isolated from the conductive side of the electrode. A Pt wire, isolated from the working electrode and Pt grid by a glass frit, was utilized as a counter electrode. […] After 15.5 hours or electrolysis at -0.65 V (vs Ag/AgCl) and room temperature with continuous stirring, the solution contained 222 μM of product (5-exo-hydroxy-camphor), which corresponds to 1127 turnovers of the enzyme.

Molecule	Product Turnover Rate (CYP101; 12.8 μM CYP101 (no Pdx), Argon Purge, 800 μM camphor, -0.7 V, 21-22° C.)	Product Turnover Rate (CYP101; 41 μM Pdx (no CYP101), Argon Purge, 800 μM camphor, -0.7 V, 21-22° C.)	Product Turnover Rate (CYP101; 41 μM Pdx + 0.41 μM CYP101, Air Saturated, 800 μM camphor, -0.7 V, 21-22° C.)	Product Turnover Rate (CYP101; 55 μM Pdx + 0.18 μM CYP101, Argon Purge, 800 μM camphor, -0.7 V, 21-22° C.)	Product Turnover Rate (CYP101; 108 μM Pdx + 0.23 μM CYP101, Argon Purge, 800 μM camphor, -0.7 V, 21-22° C.)	Product Turnover Rate (CYP101; 1030 μM Pdx + 0.13 μM CYP101, Argon Purge, initial camphor 2 mM, -0.7 V, 21-22° C.)	Product Turnover Rate (CYP101; 1030 μM Pdx + 0.13 μM CYP101, Argon Purge, initial camphor concentration was mM, 37° C., -0.7 V)	turnovers of the enzyme (CYP101; Example 2: 10 μM CYP101, 118 μM Pdx, 600 μM camphor, -0.7 V, 240 minutes, argon purge)	average rate of enzyme turnover (CYP101; Example 3: 0.23 μM CYP101, 108 μM Pdx, 626 μM camphor, -0.7 V, 5 hours) [turnovers/hour]	turnovers of the enzyme (CYP101; Example 3: 0.23 μM CYP101, 108 μM Pdx, 626 μM camphor, -0.7 V, 5 hours, Pt sheet near working electrode) [turnovers]	turnovers of the enzyme (CYP101; Example 4: 0.2 μM CYP101, 101 μM Pdx, 650 μM camphor, -0.65 V, 15.5 hours, room temperature, Pt grid) [turnovers]	formal potential [1] [V vs Ag/AgCl]	initial activity of Pdx recovered after electrolysis ([1]; Example 1: 30 μM Pdx, electrolysis at -0.7 V then 0 V on SnO2 electrode) [%]	Pdx remaining intact after electrolysis (% of the initial concentration) ([1]; Example 4: 101 μM initial Pdx, 15.5 hours at -0.65 V)	Pdx remaining intact after electrolysis (concentration) ([1]; Example 4: 101 μM initial Pdx, 15.5 hours at -0.65 V, spectrophotometric analysis)
CC12CCC(CC1=O)C2(C)C (stereo not drawn) [camphor]	0 nmol 5exo-hydroxy-camphor/min/	0 nmol 5exo-hydroxy-camphor/min/	0.9 nmol 5exo-hydroxy-camphor/min/	4.2 nmol 5exo-hydroxy-camphor/min/	6.4 nmol 5exo-hydroxy-camphor/min/	34 nmol 5exo-hydroxy-camphor/min/	36 nmol 5exo-hydroxy-camphor/min/	about 20 turnovers	384	1922	1127				
Pdx: putidaredoxin, a 2Fe-2S protein, redox carrier of the CYP101 system (protein, UniProt P00259 2-107, looked up) Putidaredoxin: SKVVYVSHDGTRRELDVADGVSLMQAAVSNGIYDIVGDCGGSASCATCHVYVNEAFTDKVPAANEREIGMLECVTAELKPNSRLCCQIIMTPELDGIVVDVPDRQW												-0.42	50	about 85%	about 85 μM
